Columns and labels:
[1] = Fluorescence measurement of azido probe and EE2-probe adduct (spectrometer); format: physicochemical; details: excited at λ=319 nm; initial measurements
Text: A feature of the probes herein described is the means by which a readable fluorescent signal can be reliably detected once the azidonaphthalimidoyl probe (see Example 1, compound 3) reacts with EE2. Thus, fluorescent measurements can be conducted on azido probe 3 (Example 1) before and after its reaction with commercially available 17α-ethinylestradiol (EE2, 1) (FIG. 5). […] Thus, the fluorescence profile of the EE2-probe adduct 4 can be obtained at different concentrations in order to obtain the lowest limit of detection for this analytical approach (Panel 1 of FIG. 5). Once that lower limit has been determined, a second set of experiments can be undertaken to test the efficacy and fidelity of the Click reaction. […] After the overnight run, the samples can be extracted into an organic layer (CH2Cl2 or diethyl ether), evaporated, redissolved in the solvent of choice for the fluorescence measurements (e.g. H2O, or a combination of MeOH/H2O) and their fluorescent intensities measured. This second set of experiments is designed to test the real case scenario where the actual, unknown EE2 concentration in a given sample can be detected using the azido probe.
Once an azido probe as herein described (e.g. 3) is synthesized (Example 1), it can be reacted with commercially available EE2. […] The calculated Stokes' shift based on this preliminary measurements is Δλ=48 nm.

[2] = Visual fluorescence analysis with a UV lamp (long wavelength, 365 nm); format: physicochemical; details: λ=365 nm; equimolar solutions of probe and adduct
Text: Both vials contain equimolar amounts of the azido probe and EE2-probe adduct respectively.
Once an azido probe as herein described (e.g. 3) is synthesized (Example 1), it can be reacted with commercially available EE2. For example, reaction of azido probe 3 with EE2 in the presence of CuSO4.5H2O and sodium ascorbate in a 2:1 tert-butanol-water mixture at room temperature overnight yielded the triazole-containing EE2-probe adduct 4 in nearly quantitative yield (>95%) as an off-white solid after column chromatography. The use of another source of Cu(I) ion such as CuBr or CuI can be employed in this step, eliminating the need for sodium ascorbate. However, copper(I) halides can be avoided if a reduction in unwanted background fluorescence when using the spectrophotometer is desired. If a cost reduction is desired, instead of copper(I) halides readily available and inexpensive Cu(II) sulfate pentahydrate and sodium ascorbate can be purchased in multigram quantities and used in reactions with EE2. […] The calculated Stokes' shift based on this preliminary measurements is Δλ=48 nm.

- fluorescence of the probe [1]: marginal fluorescence
- qualitative fluorescence under UV lamp [2]: does not
SMILES: [N-]=[N+]=Nc1ccc2c3c(cccc13)C(=O)N(CCOCCO)C2=O [Probe 3]

Reference: US9791463B2, “Methods for the selective detection of alkyne-presenting molecules and related compositions and systems” (Lawrence Livermore National Security, LLC, priority 2013, dated 2017)
